Assay results published in ChEMBL document CHEMBL5244275, “Geminal Diheteroatomic Motifs: Some Applications of Acetals, Ketals, and Their Sulfur and Nitrogen Homologues in Medicinal Chemistry and Drug Design” (J Med Chem, 2021).
In brackets after ≈: the same amount, converted by molar mass. Blank lines part the entries; values can stand above or below the compound they belong to.

Tests used:
[1] = Stability of the compound in HCL solution assessed as compound hydrolysis by measuring relative rate constant by NMR analysis; format: physicochemical; details: buffer
[2] = Growth inhibition of human PC-12 cells; format: functional, PC12
PC-6 = experiment: Growth inhibition of human PC-6 cells; format: functional
[3] = Oral bioavailability in mouse; format: ADME, organism-based; details: in vivo
[4] = Oral bioavailability in human; format: ADME, organism-based; details: in vivo
[5] = Stability of the compound in 1M HCL buffer assessed as drug degradation by measuring rate constant by FRET-based assay; format: physicochemical
[6] = Stability of the compound assessed as compound hydrolysis by measuring rate constant by NMR spectroscopic analysis; format: physicochemical
[7] = Half-life in human plasma; format: ADME
[8] = Stability of the compound in 0.01 N HCL at pH 2.0 assessed as half-life; format: physicochemical
[9] = Inhibition of Leukotriene B4 production in human blood Polymorphonuclear neutrophil cells; format: functional, tissue-based
[10] = Chemical stability of the compound assessed as acid-catalyzed hydrolysis by measuring rate constant; format: physicochemical
Substance-P receptor = Substance-P receptor (Homo sapiens, UniProt P25103); experiment: Displacement of [125I]-labeled SP from human NK-1 receptor expressed in CHO cells; format: cell-based
Chain of Substance-P receptor (P25103 whole entry): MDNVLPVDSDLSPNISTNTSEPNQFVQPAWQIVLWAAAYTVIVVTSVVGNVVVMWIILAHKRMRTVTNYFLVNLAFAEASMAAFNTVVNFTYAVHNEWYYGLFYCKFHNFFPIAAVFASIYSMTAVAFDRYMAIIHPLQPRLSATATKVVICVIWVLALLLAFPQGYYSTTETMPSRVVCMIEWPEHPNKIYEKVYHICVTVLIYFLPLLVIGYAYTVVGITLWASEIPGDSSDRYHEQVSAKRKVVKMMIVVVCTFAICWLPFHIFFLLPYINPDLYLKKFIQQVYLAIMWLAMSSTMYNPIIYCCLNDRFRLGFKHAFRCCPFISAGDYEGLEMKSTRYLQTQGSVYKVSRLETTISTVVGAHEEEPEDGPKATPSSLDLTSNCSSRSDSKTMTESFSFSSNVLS

[11] = Oral bioavailability in dog; format: ADME, organism-based, Canis lupus familiaris; details: in vivo
[12] = Stability of the compound at pH 2 assessed as half-life; format: physicochemical; details: buffer

- K [1]: 2.3 10^9No_unit
Compound: CCOC1(OCC)OCCCO1

Compound: CC(=O)O[C@@]12CO[C@@H]1CC[C@@]1(C)[C@@H]3O[C@H](CN(C)C)O[C@@H]3C3=C(C)[C@@H](OC(=O)[C@H](O)[C@@H](NC(=O)OC(C)(C)C)c4ncccc4F)C[C@@](O)([C@@H](OC(=O)c4ccccc4)[C@@H]12)C3(C)C [TESETAXEL]
- GI50 [2]: 0.62 ng/mL (≈ 0.703 nM)
- GI50 (PC-6): 0.38 ng/mL (≈ 0.431 nM)

- bioavailability [3]: 63%
Compound: C=C(C)CN1C[C@H](OC[C@@]23C[C@@H]4[C@H](C)CC[C@H]4[C@@]4(C=O)C[C@@H]2C=C(C(C)C)[C@@]34C(=O)O)O[C@H](C)[C@@H](OC)C1

- bioavailability [4]: 80%
Compound: Nc1ccn([C@H]2CC[C@@H](CO)O2)c(=O)n1 [ZALCITABINE]

- K [5]: 1.59 10^-6/s
Compound: COc1cc(/N=N/c2ccc([N+](=O)[O-])cc2)c(OC)cc1/N=N/c1ccc(N(C)CCCC(=O)NCCSC2CC(=O)N(CC3OCC(C(=O)NCCCNC(=O)c4ccc(C(=O)[O-])c(-c5c6ccc(=[N+](C)C)cc-6oc6cc(N(C)C)ccc56)c4)O3)C2=O)cc1 (stereo not given)

Compound: CC(=O)O[C@@]12CO[C@@H]1CC[C@@]1(C)[C@@H]3O[C@H](CN4CCOCC4)O[C@@H]3C3=C(C)[C@@H](OC(=O)[C@H](O)[C@@H](NC(=O)OC(C)(C)C)c4ncccc4F)C[C@@](O)([C@@H](OC(=O)c4ccccc4)[C@@H]12)C3(C)C
- GI50 [2]: 0.14 ng/mL (≈ 0.152 nM)
- GI50 (PC-6): 0.29 ng/mL (≈ 0.314 nM)

- K [6]: 7.33 10^-4No_unit
Compound: C=CC1(C)CCC(C)(C)CC1

- half-life [7]: 7 h
- bioavailability [4]: 63%
Compound: Cn1c(=O)c2c(ncn2CC2OCCO2)n(C)c1=O [DOXOFYLLINE]

Compound: C[C@H]1[C@@H](OCc2ccc(C(=O)O)cc2)O[C@@H]2O[C@@]3(C)CC[C@H]4[C@H](C)CC[C@@H]1[C@@]24OO3
- half-life [8]: 11 h

- IC50 [9]: 8 nM
Compound: O=C1OCc2c1cc1cc(OCc3cccc(C4(O)CC5CCC(C4)O5)c3)ccc1c2-c1ccccc1 (stereo not given)

- K [5]: 2.28 10^-6/s
Compound: COc1cc(/N=N/c2ccc([N+](=O)[O-])cc2)c(OC)cc1/N=N/c1ccc(N(C)CCCC(=O)NCCSC2CC(=O)N(CCC3OCC(C(=O)NCCCNC(=O)c4ccc(-c5c6ccc(=[N+](C)C)cc-6oc6cc(N(C)C)ccc56)c(C(=O)[O-])c4)CO3)C2=O)cc1 (stereo not given)

- K [1]: 1 10^2No_unit
Compound: CCC1OCCCO1

- Drug metabolism [10]: 0.82 10^-3L/mol/min
Compound: Nc1ncnc2c1ncn2[C@@H]1O[C@H](CO)[C@@H](O)[C@H]1O [ADENOSINE]

- IC50 (Substance-P receptor): 1.4 nM
Compound: CN(C)Cc1[nH]nnc1CN1CCO[C@@]2(CC[C@@H](c3ccccc3OC(F)(F)F)CO2)[C@@H]1c1ccc(F)cc1

- K [5]: 4.61 10^-6/s
Compound: COc1cc(/N=N/c2ccc([N+](=O)[O-])cc2)c(OC)cc1/N=N/c1ccc(N(C)CCCC(=O)NCCSC2CC(=O)N(CCC3OCC(C(=O)NCCCNC(=O)c4ccc(-c5c6ccc(=[N+](C)C)cc-6oc6cc(N(C)C)ccc56)c(C(=O)[O-])c4)O3)C2=O)cc1 (stereo not given)

- K [6]: 0
Compound: CC(Cl)C1(C)CCC(C)(C)CC1 (stereo not given)

- K [1]: 1 10^8No_unit
Compound: C1CCC2(CC1)OCCCCO2

- bioavailability [11]: 64%
Compound: C[C@@H](c1c[nH]c2ccccc12)[C@H](C(=O)NC[C@H]1OC[C@H](N)CO1)N1CCN(CCC(c2ccccc2)c2ccccc2)C1=O

- IC50 (Substance-P receptor): 28 nM
Compound: Fc1ccc([C@@H]2NCCO[C@@]23CC[C@@H](c2ccccc2C(F)(F)F)CO3)cc1

- half-life [7]: 36 h
Compound: N=C(N)NCCN1CCCCCCC1 [GUANETHIDINE]

Compound: CCCC[C@H]1O[C@@H]2O[C@@]3(C)CC[C@H]4[C@H](C)CC[C@@H]([C@H]1C)[C@@]24OO3
- half-life [8]: 165 h

- half-life [12]: 56 s
Compound: CC1(C)OC[C@@H](C/C=C\CCCC(=O)O)[C@@H](c2ccccc2O)O1

- half-life [7]: 8 h
Compound: COC(=O)N[C@H](C(=O)N1CCC[C@H]1c1ncc(-c2ccc(-c3ccc(-c4cnc([C@@H]5CC6(CN5C(=O)[C@@H](NC(=O)OC)C(C)C)OCCO6)[nH]4)cc3)cc2)[nH]1)C(C)C

- K [1]: 1
Compound: c1ccc2c(c1)OC1(CCCCC1)O2

- K [1]: 2.6 10^8No_unit
Compound: COC1(OC)OCCCO1

- K [6]: 2.25 10^-6No_unit
Compound: CC(Cl)C1(C)CCCCC1 (stereo not given)

- Drug metabolism [10]: 35 L/mol/min
Compound: Nc1ncnc2c1ncn2[C@H]1CC[C@@H](CO)O1

Compound: CC(=O)O[C@@]12CO[C@@H]1CC[C@@]1(C)[C@H]3OC(C)(C)O[C@@H]3C3=C(C)[C@@H](OC(=O)[C@H](O)[C@@H](NC(=O)OC(C)(C)C)c4ccccn4)C[C@@](O)([C@@H](OC(=O)c4ccccc4)[C@@H]12)C3(C)C
- GI50 [2]: 0.15 ng/mL (≈ 0.18 nM)
- GI50 (PC-6): 0.33 ng/mL (≈ 0.395 nM)

- half-life [7]: 12 h
Compound: COC(=O)N[C@H](C(=O)N1CCC[C@H]1c1nc(-c2ccc(-c3ccc(-c4c[nH]c([C@@H]5CCCN5C(=O)[C@@H](NC(=O)OC)C(C)C)n4)cc3)cc2)c[nH]1)C(C)C

Compound: CC(=O)O[C@@]12CO[C@@H]1C[C@H](O)[C@@]1(C)C(=O)[C@H](O)C3=C(C)[C@@H](OC(=O)[C@H](O)[C@@H](NC(=O)OC(C)(C)C)c4ccccc4)C[C@@](O)([C@@H](OC(=O)c4ccccc4)[C@H]21)C3(C)C [DOCETAXEL ANHYDROUS]
- GI50 [2]: 42.2 ng/mL (≈ 52.2 nM)
- GI50 (PC-6): 1.48 ng/mL (≈ 1.83 nM)

- K [1]: 2.1 10^4No_unit
Compound: c1ccc2c(c1)COC1(CCCCC1)O2

- K [1]: 5.4 10^5No_unit
Compound: C1CCC2(CC1)OCCO2

- Drug metabolism [10]: 0.012 L/mol/min
Compound: Nc1ncnc2c1ncn2[C@@H]1O[C@H](CO)C[C@H]1O [CORDYCEPIN]

- K [6]: 0
Compound: CC(Cl)C1(C)OCCO1 (stereo not given)

- K [1]: 1
Compound: C1COCOC1
